Where “and” joins values, the source holds several entries; their conditions need not be identical. Equal values may be shown once. Read-outs that look alike come from different tables or passages of the source.
Tests used:
[1] = Cytotoxicity assay on human HepG2 cells (resazurin); type: cell-based; conditions: human, HepG2 cells, 72 h, two independent experiments; read-out: pCC50 (HepG2) (converted)
HepG2 cells = assay: as above; type: cell-based; conditions: individual replicates
[2] = Cytotoxicity against infected Vero host cells in T. cruzi intracellular assay; type: cell-based, African green monkey; parameters: Max Effect (Vero): unit not given here; conditions: African green monkey, Vero cells infected with T. cruzi; infected Vero host cells, 96 h; read-out: pCC50 (Vero) +/- StDev (converted)
Protocol: (§1) Briefly, these cells were maintained at 37°C and 5% CO2 in MEM supplemented with 10% FCS, sub-culturing every 2–3 days at a ratio of 1:5 after 5 min treatment with Trypsin-EDTA (Gibco).
(§2) This assay was performed as described with the only modification that treatment was 96 h instead of 72 h. Briefly, Vero cells were infected overnight with tissue culture derived T. cruzi trypomastigotes in T225 tissue culture flasks (MOI 5). Any remaining free trypomastigotes were washed away with serum free MEM and the infected Vero cells were harvested by trypsinisation. Compounds (250 nL in DMSO) were dispensed using LabCyte ECHO (Beckman Coulter Life Sciences, USA) into each well of Corning black flat bottomed 384-well plates (Corning, USA). […] The infected Vero cells were then plated into the plates containing the compounds, at 4,000 cells per well in MEM media with 1% FCS. […] The plates were imaged on a Perkin Elmer Operetta high-content imaging system using a 20× objective. Images were analyzed using the Columbus system (Perkin Elmer). The algorithm first identified the Vero nuclei followed by demarcation of the cytoplasm and identification of intracellular amastigotes. This algorithm reported percent infected Vero cell and total number of Vero cells. All potency determinations were carried out in at least three independent replicates and are reported as pEC50 +/- standard deviation. pEC50 = -log(EC50[M]).

Vero cells = assay: as above; type: cell-based, African green monkey; parameters: Max Effect (Vero): unit not given here; conditions: individual replicates
Protocol: as §1, §2

[3] = target: T1, LAPTc (acidic M17 leucyl-aminopeptidase from T. cruzi) (Trypanosoma cruzi, UniProt V5BWE3); assay: High-throughput single point screening for LAPTc inhibitors by RapidFire-MS; type: biochemical; conditions: primary screen, 30 μM, single replicate; read-out: Percent Inhibition
T1 sequence (V5BWE3 entry or part of it): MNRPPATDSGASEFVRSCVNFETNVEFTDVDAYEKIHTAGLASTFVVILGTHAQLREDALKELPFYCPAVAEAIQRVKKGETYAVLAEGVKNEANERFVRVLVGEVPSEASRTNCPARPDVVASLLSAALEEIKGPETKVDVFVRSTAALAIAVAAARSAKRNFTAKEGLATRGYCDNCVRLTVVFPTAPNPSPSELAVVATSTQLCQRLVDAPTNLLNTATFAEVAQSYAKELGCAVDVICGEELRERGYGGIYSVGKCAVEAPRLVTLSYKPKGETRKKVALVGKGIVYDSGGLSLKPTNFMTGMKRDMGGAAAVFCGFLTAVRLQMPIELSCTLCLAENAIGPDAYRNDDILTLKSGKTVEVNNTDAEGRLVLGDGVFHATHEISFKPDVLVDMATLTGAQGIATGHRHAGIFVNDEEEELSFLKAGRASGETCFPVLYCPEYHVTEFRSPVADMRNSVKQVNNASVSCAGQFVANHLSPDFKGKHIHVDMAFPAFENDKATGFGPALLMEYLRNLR
Protocol: (§3) This assay was previously described. The assay was performed in 384-well clear F-bottom polypropylene plates with a final reaction volume of 15 μL. The reaction mixture contained 7.5 μL LAPTc in 50 mM Tris-HCl, pH 7.5, 0.005% NP-40 and 7.5 μL LSTVIVR peptide substrate (Cambridge Research Biochemicals, Billingham, UK) in the same buffer was added to start the reaction. The reaction was performed at room temperature for 40 min and then stopped with 85 μL 1% formic acid containing 0.15 mg/mL STVIVR* internal standard (Cambridge Research Biochemicals, Billingham, UK).
Single point screening of a library of 3329 compounds was performed in 384-well clear plates (Greiner 781101) at room temperature. Test compounds (45 nL in DMSO) were transferred to assay plates by an ECHO 550 acoustic dispenser (Labcyte). LAPTc was tested at 3 nM with 150 μM (approximately the value of the apparent Michaelis-Menten constant -appKM- [16]) LSTVIVR peptide substrate in a 40 min reaction. Before addition of substrate, LAPTc was preincubated with 45 nL compounds or DMSO for 15 min. Compounds, dissolved in DMSO, were tested at 30 μM. Controls without compound (the same volume of DMSO, 0% inhibitory effect) and without enzyme and compound (100% inhibitory effect) were prepared. The experiment was performed without replicates. The remaining experimental conditions were maintained as previously described. Data were processed and analysed through ActivityBase XE (IDBS). The selection criterion for hits in this single point screen was percent inhibition larger than the mean plus three standard deviations. All primary screening data are available in ChEMBL (see Data Availability statement).

[4] = tested on: intracellular T. cruzi amastigotes; assay: T. cruzi intracellular assay (high-content imaging, infected Vero cells); type: cell-based, Trypanosoma cruzi; parameters: Max Effect (T. cruzi): unit not given here; conditions: for EC50 / Emax: Trypanosoma cruzi, Vero; for Emax: read-out: Max Effect (T. cruzi)
Protocol: T. cruzi parasite, TcI strain Silvio X10/7 subclone A1 [34] was maintained in culture as previously described. Parasites were maintained as amastigotes by passaging on a weekly basis in Vero cells. Culture maintenance infections were carried out at an MOI (multiplicity of infection) of 1.5.
This assay was performed as described with the only modification that treatment was 96 h instead of 72 h. Briefly, Vero cells were infected overnight with tissue culture derived T. cruzi trypomastigotes in T225 tissue culture flasks (MOI 5). Any remaining free trypomastigotes were washed away with serum free MEM and the infected Vero cells were harvested by trypsinisation. Compounds (250 nL in DMSO) were dispensed using LabCyte ECHO (Beckman Coulter Life Sciences, USA) into each well of Corning black flat bottomed 384-well plates (Corning, USA). […] The infected Vero cells were then plated into the plates containing the compounds, at 4,000 cells per well in MEM media with 1% FCS. After 96 h incubation at 37°C in presence of 5% CO2, the plates were fixed with 4% formaldehyde for 20 min at room temperature and stained with 5 μg/mL Hoechst 33342. The plates were imaged on a Perkin Elmer Operetta high-content imaging system using a 20× objective. Images were analyzed using the Columbus system (Perkin Elmer). The algorithm first identified the Vero nuclei followed by demarcation of the cytoplasm and identification of intracellular amastigotes. This algorithm reported percent infected Vero cell and total number of Vero cells. All potency determinations were carried out in at least three independent replicates and are reported as pEC50 +/- standard deviation. pEC50 = -log(EC50[M]).

[5] = target: T1, LAPTc (acidic M17 leucyl-aminopeptidase from T. cruzi); assay: Dose-response studies for LAPTc inhibition by RapidFire-MS; type: biochemical; conditions: for Emax: read-out: Maximum Effect; for Hit Confirmation: whether primary screen hit confirmed in potency experiment
Protocol: as §3
To generate half-maximum inhibitory concentration (IC50) data for LAPTc, 10-point dose-response curves with 100 μM as highest concentration and 1:2 dilution in DMSO (0.195–100 μM range) were prepared in 384 well plates. All other experimental conditions were as described above. All IC50 curve fitting was performed by four-parameter logistic dose-response curve fit using ActivityBase XE (IDBS). At least three replicates were generated for each hit compound.

[6] = 96 h, four independent experiments, read-out: pEC50 (T. cruzi) +/- StDev (converted)
[7] = individual replicates, read-out: pEC50 (T. cruzi) (converted)
[8] = Initial hit confirmation, single replicate
[9] = Initial hit confirmation, single replicate, read-out: pIC50 (converted)
[10] = Replicate data generation, individual replicates
[11] = Replicate data generation, individual replicates, read-out: pIC50 (converted)
[12] = average of four independent replicates, read-out: pIC50 +/- StDev (LAPTc) (converted)

SMILES | CC50 at 72 h [1] | Max Effect (HepG2) (HepG2 cells) | pEC50 (HepG2) (HepG2 cells) | CC50 at 96 h [2] | Max Effect (Vero) (Vero cells) | pEC50 (Vero) (Vero cells) | inhibition at 30 µM [3] | EC50 [4, 6] | EC50 [4, 7] | Max Effect (T. cruzi) ([4]; individual replicates) | Hill Slope [5, 8] | Emax [5, 8] | IC50 [5, 9] | Hill Slope [5, 10] | Maximum Effect [5, 10] | Emax [5, 10] | IC50 [5, 11] | IC50 [5, 12] | Hit Confirmation [5] | Emax ([4]; individual replicates) | other results
CC1c2ccsc2CCN1C(=O)c1ccc(-n2cnnn2)cc1 (stereo not drawn) [Compound 2] | > 100 µM | 4 and 3 | < 4.0 | > 50.1 µM | 26 and 27 and 21 and 22 | < 4.3 | 62% | > 50.1 µM | > 50.1 µM | 42 and 15 and 37 and 27 | 1.7 | 77% | 31.6 µM | 1.1 and 1.2 | 86% | 87% | 15.8 µM | 19.5 µM | confirmed | – | –
Cc1ccc2nc(-c3ccc(NS(=O)(=O)c4cc(C(=O)O)c(Cl)cc4Cl)cc3)sc2c1 [Compound 5] | > 100 µM | 4.7 and 1.78 | < 4.0 | 33.1 µM | 71 and 82 and 77 | 4.4 and 4.6 and 4.5 | 58% | > 50.1 µM | > 50.1 µM | 45 | 1.2 | 96% | 12.6 µM | 4.3 and 4.2 and 3.9 | 98% | 99% | 7.94 µM | 8.91 µM | confirmed | 44% | –
O=C(CN1NS(=O)(=O)c2ccccc2C1=O)NCCc1ccccc1 [Compound 6] | > 100 µM | 3.48 and 3.47 | < 4.0 | > 50.1 µM | 8.54 and 13 and 11 and 18 | < 4.3 | 56% | > 50.1 µM | > 50.1 µM | 20 and 14 and 16 | 0.543 | 68% | 20 µM | 0.9 and 0.54 and 0.7 | 72% and 73% | 76% | 7.94 µM and 12.6 µM and 5.01 µM | 9.77 µM | confirmed | 11% | –
Nc1[nH]cnc1-c1nc(-c2ccccc2)cs1 [Compound 7] | > 100 µM | 3 and 4 | < 4.0 | 10.2 µM | 78 and 73 | 5.1 and 4.8 and 5.2 | 56% | 38.9 µM | 31.6 µM | 59 and 37 and 30 | 1.2 | 90% | 2 µM | 1.7 and 1.5 | 50% and 61% | 53% | – | 3.89 µM | confirmed | – | pEC50 (T. cruzi) ([4]; individual replicates): < 4.3 and 4.3
Cn1ccnc1C(NS(=O)(=O)c1ccc(C#N)cc1)c1cccc(F)c1 (stereo not drawn) [Compound 8] | > 100 µM | 6.44 and 10 | < 4.0 | > 50.1 µM | 18 and 29 and 34 and 32 | < 4.3 | 49% | > 50.1 µM | > 50.1 µM | 31 and 26 and 25 | 1.0 | 89% | 12.6 µM | 1.5 and 1.6 and 1.3 | 82% | 79% | 12.6 µM | – | confirmed | 29% | –
O=C(NCC(=O)N1CCc2ccccc2C1)C1CCCCC1 [Compound 9] | > 100 µM | 3.76 and 2.85 | < 4.0 | > 50.1 µM | 7 and 4 and 15 and 11 | < 4.3 | 49% | > 50.1 µM | > 50.1 µM | 27 and 21 and 30 | 1.7 | 54% | 15.8 µM | 0.749 and 0.7 and 0.655 | 67% and 63% | 64% | 39.8 µM and 31.6 µM | 28.8 µM | confirmed | 31% | –

— paper PMC10901353, “Identification of a potent and selective LAPTc inhibitor by RapidFire-Mass Spectrometry, with antichagasic activity” (PLOS Neglected Tropical Diseases, 2024)
